For 38 compounds, EC50 results are on record in patent US12162857B2, “Antiviral compounds” (priority 2022, dated 2024).

The assay has as its system HMPV A2 TN/94-49. Description: HMPV antiviral assay: LLC-MK2 cells, ATP-Lite readout. The assay is classed as cell-based. The following applies: LLC-MK2, 168 h, MOI 0.005, 7 days incubation. As for the experimental part: In vitro HMPV antiviral activity was evaluated using the clinical isolate A2 strain TN 94-49 and LLC-MK2 cells (ATCC #CCL-7), an immortalized kidney epithelial cell line from Macaca mulatta. Compounds were resuspended in dimethyl sulfoxide (DMSO) at 10 mM, serially diluted and added to a 384-well source plate. Subsequently, the compounds were diluted and transferred onto 384-well assay plates using the Echo-650 automated liquid handling system (Beckman Coulter, Indiana). The test compounds were assessed in duplicate at a top concentration of 2 μM followed by 2.5-fold serial dilutions to give a total of 10 concentration points. DMSO control wells were also included on the assay plates and were either infected or not, acting as positive and negative controls. A2 TN 94-49 virus infections were performed in-suspension with LLC-MK2 cells. The cells were washed twice with PBS and removed from the cell-culture flask with 0.25% trypsin-EDTA (Thermo Fisher Scientific, MA). The trypsin-EDTA was inactivated by resuspending in 2% fetal bovine serum (FBS) and OptiMEM (ThermoFisher Scientific, MA) containing 1% penicillin-streptomycin. Cells were pelleted by centrifuging for 5 minutes at 800 rpm, the supernatant was removed, and cells were re-suspended and washed in PBS plus 100 μg/mL CaCl2). This step was performed twice. Cells were then re-suspended in serum-free (SF)-OptiMEM containing 4 μg/mL TPCK-Trypsin (Sigma Aldrich, MO), 1% penicillin-streptomycin (ThermoFisher Scientific, MA) and 100 μg/mL CaCl2). Cells were counted and seeded at a density of 5,000 cells/well, 12.5 μL/well. Virus infections were done at a multiplicity of infection (MOI) of 0.005 with 12.5 μL added per well. Virus infections were performed in infection media which contained SF-OptiMEM, 100 μg/mL CaCl2) and 1% penicillin-streptomycin. HMPV viral stocks are suspended in infection media+5% glycerol, thus an equal volume of infection media+5% glycerol was added to uninfected wells to equalize the final % glycerol across all wells of the assay plate. The final concentration of TPCK-trypsin was 2 μg/mL. The assay plates were incubated at 37° C., 5% CO2 for 7 days. After 7 days incubation, 12.5 μL of ATP-Lite (PerkinElmer, MA) was added to each well and the raw luminescence values were determined using the Envision 2104 (Perkin Elmer, MA). The average of the raw luminescence values for the cells and virus only positive control wells was subtracted from all conditions tested and the percent cell health was determined by dividing these values by the average of the cells only negative control wells. EC50 values were then calculated by non-linear regression using a four-parameter curve logistic equation. The curve fit model employed was XLFit Dose Response One Site Model 200: y=(A+(B/(1+((x/C)^D)))), where A is the minimum y value, B is the maximum y value, C is the log EC50 value, and D is the slope factor. […] EC50 ranges are as follows: A<1 μM; B>1 μM.
As to `COc1c(C(C)(C)O)cc([C@@](O)(CNC(=O)c2cc(OC)c3nn(C4CC4)cc3c2)C2CC2)nc1-c1cc(F)c(F)cc1F` (single isomer, unassigned) [Example 165], the EC50 (in general, the concentration at which the effect is half-maximal) was more than 1000 nM.
For `COc1cc(C(=O)NC[C@](O)(c2cc(C(C)(C)O)c(F)c(-c3cc(Cl)c(F)cc3F)n2)C2CC2)cc2cn(C3(F)CC3)nc12` [Example 53] the value was less than 1000 nM; for `COc1cc(C(=O)NC[C@](O)(c2cc(C(C)(C)O)c(F)c(-c3cc(Cl)c(F)cc3F)n2)C2CC2)cc2cn(C(F)F)nc12` [Example 54], less than 1000 nM; for `CC(C)(O)c1cc([C@@](O)(CNC(=O)c2cc(OC3CC3)c3nn(C4CC4)cc3c2)C2CC2)nc(-c2cc(Cl)c(F)cc2F)c1F` [Example 55], less than 1000 nM.
The compound `COc1cc(C(=O)NC[C@](O)(c2cc(C(C)(C)O)c(F)c(-c3cc(Cl)c(F)cc3F)n2)C2CC2)cc2cc(C3CC3)nn12` [Example 56] gave an EC50 of less than 1000 nM.
Compound `COc1cc(C(=O)NC[C@](O)(c2cc(C(C)(C)O)c(F)c(-c3cc(Cl)c(F)cc3F)n2)c2nccs2)cc2cn(C3CC3)nc12` [Example 58] registered an EC50 of less than 1000 nM.
Compound `COc1cc(C(=O)NC[C@@](O)(c2ccccc2)c2cc(C(C)(C)O)c(F)c(-c3cc(Cl)c(F)cc3F)n2)cc2cn(C3CC3)nc12` [Example 60] displayed an EC50 of less than 1000 nM.
Next, `COc1cc(C(=O)NC[C@@](O)(c2ccccc2)c2cc(C(C)(C)O)c(F)c(-c3cc(Cl)c(F)cc3F)n2)cc2cn(C3(F)CC3)nc12` [Example 61]: less than 1000 nM.
For `CC(C)(O)c1cc([C@@](O)(CNC(=O)c2cc(OC3CC3)c3nn(C4CC4)cc3c2)c2ccccc2)nc(-c2cc(Cl)c(F)cc2F)c1F` [Example 63] the value was less than 1000 nM; for `CC(C)(O)c1cc([C@@](O)(CNC(=O)c2cc(Cl)c3nn(C4CC4)cc3c2)c2ccccc2)nc(-c2ccc(F)c(Cl)c2Cl)c1F` [Example 68], less than 1000 nM; for `COc1cc(C(=O)NC[C@@](O)(c2ccccc2)c2cc(C(C)(C)O)c(F)c(-c3ccc(F)c(Cl)c3Cl)n2)cc2cc(C3CC3)nn12` [Example 69], less than 1000 nM.
For `COc1cc(C(=O)NC[C@@](O)(c2ccccc2)c2cc(C(C)(C)O)c(F)c(-c3ccc(F)c(Cl)c3Cl)n2)cc2cn(C(F)F)nc12` [Example 70] the value was less than 1000 nM; for `COc1cc(C(=O)NC[C@@](O)(c2ccccc2)c2cc(C(C)(C)O)c(F)c(-c3ccc(F)c(Cl)c3Cl)n2)cc2sc(C)nc12` [Example 71], less than 1000 nM.
For the compound `COc1cc(C(=O)NC[C@@](O)(c2ccccc2)c2cc(C(C)(C)O)c(F)c(-c3ccc4c(c3Cl)OC(F)(F)O4)n2)cc2cc(C3CC3)nn12` [Example 72], the 50% effective concentration (EC50) is less than 1000 nM.
For `COc1cc(C(=O)NC[C@@](O)(c2ccccc2)c2cc(C(C)(C)O)c(F)c(-c3ccc4c(c3Cl)OC(F)(F)O4)n2)cc2sc(C)nc12` [Example 73] the value was less than 1000 nM; for `CC(C)(O)c1cc([C@@](O)(CNC(=O)c2cc(Cl)c3nn(C4CC4)cc3c2)c2ccccc2)nc(-c2ccc3c(c2Cl)OC(F)(F)O3)c1F` [Example 75], more than 1000 nM; for `COc1cc(C(=O)NC[C@@](O)(c2ccccc2)c2cc(C(C)(C)O)c(F)c(-c3ccc4c(c3Cl)OC(F)(F)O4)n2)cc2cn(C(F)F)nc12` [Example 76], less than 1000 nM.
For the compound `CC(C)(O)c1cc([C@@](O)(CNC(=O)c2cc(Cl)c3nn(C4CC4)cc3c2)c2ccccc2)nc(-c2ccc3c(c2)OC(F)(F)O3)c1F` [Example 77], the concentration giving a half-maximal response (EC50) was more than 1000 nM.
Next, `COc1cc(C(=O)NC[C@@](O)(c2ccccc2)c2cc(C(C)(C)O)c(F)c(-c3cccc(Cl)c3Cl)n2)cc2sc(C)nc12` [Example 78]: less than 1000 nM; `COc1cc(C(=O)NC[C@@](O)(c2ccccc2)c2cc(C(C)(C)O)c(F)c(-c3cccc(Cl)c3Cl)n2)cc2cn(C(F)F)nc12` [Example 80]: less than 1000 nM.
Next, `COc1cc(C(=O)NC[C@@](O)(c2ccccc2)c2cc(C(C)(C)O)c(F)c(-c3cccc(Cl)c3Cl)n2)cc2cc(C3CC3)nn12` [Example 81]: less than 1000 nM.
Next, `CC(C)(O)c1cc([C@@](O)(CNC(=O)c2cc(Cl)c3nn(C4CC4)cc3c2)c2ccccc2)nc(-c2cccc(Cl)c2Cl)c1F` [Example 82]: less than 1000 nM; `COc1cc(C(=O)NC[C@@](O)(c2ccccc2)c2cc(C(C)(C)O)c(F)c(-c3cc(F)ccc3F)n2)cc2cn(C3CC3)nc12` [Example 83]: more than 1000 nM.
`COc1cc(C(=O)NC[C@@](O)(c2ccccc2)c2cc(C(C)(C)O)c(F)c(-c3ccc(F)c(F)c3F)n2)cc2cn(C3CC3)nc12` [Example 84] came in with an EC50 of less than 1000 nM.
Compound `COc1cc(C(=O)NC[C@@](O)(c2ccccc2)c2cc(C(C)(C)O)c(F)c(-c3ccc(F)cc3F)n2)cc2cn(C3CC3)nc12` [Example 87] registered an EC50 of more than 1000 nM.
For `COc1cc(C(=O)NC[C@@](O)(c2cccc(F)c2)c2cc(C(C)(C)O)c(F)c(-c3cc(Cl)c(F)cc3F)n2)cc2sc(C)nc12` [Example 89] the value was less than 1000 nM; for `COc1cc(C(=O)NC[C@@](O)(c2cccc(F)c2)c2cc(C(C)(C)O)c(F)c(-c3cc(Cl)c(F)cc3F)n2)cc2cn(C3CC3)nc12` [Example 90], less than 1000 nM; for `CC(C)(O)c1cc([C@@](O)(CNC(=O)c2cc(Cl)c3nn(C4CC4)cc3c2)c2cccc(F)c2)nc(-c2cc(Cl)c(F)cc2F)c1F` [Example 91], less than 1000 nM.
Next, `COc1cc(C(=O)NC[C@@](O)(c2cccc(F)c2)c2cc(C(C)(C)O)c(F)c(-c3cc(Cl)c(F)cc3F)n2)cc2cn(C(F)F)nc12` [Example 92]: less than 1000 nM.
`COc1cc(C(=O)NC[C@@](O)(c2cccc(F)c2)c2cc(C(C)(C)O)c(F)c(-c3cc(Cl)c(F)cc3F)n2)cc2cc(C3CC3)nn12` [Example 93] returned an EC50 of less than 1000 nM.
For `COc1cc(C(=O)NC[C@@](O)(c2cccc(F)c2)c2cc(C(C)(C)O)c(F)c(-c3cc(F)c(F)cc3F)n2)cc2cn(C(F)F)nc12` [Example 94] the value was less than 1000 nM; for `COc1cc(C(=O)NC[C@@](O)(c2cccc(F)c2)c2cc(C(C)(C)O)c(F)c(-c3cc(F)c(F)cc3F)n2)cc2cc(C3CC3)nn12` [Example 95], less than 1000 nM; for `COc1cc(C(=O)NC[C@@](O)(c2cccc(F)c2)c2cc(C(C)(C)O)c(F)c(-c3cc(F)c(F)cc3F)n2)cc2cn(C3CC3)nc12` [Example 96], less than 1000 nM.
For `CC(C)(O)c1cc([C@@](O)(CNC(=O)c2cc(Cl)c3nn(C4CC4)cc3c2)c2cccc(F)c2)nc(-c2cc(F)c(F)cc2F)c1F` [Example 97], the EC50 was less than 1000 nM.
Next, `COc1cc(C(=O)NC[C@@](O)(c2cccc(F)c2)c2cc(C(C)(C)O)c(F)c(-c3cccc(Cl)c3Cl)n2)cc2cn(C3CC3)nc12` [Example 98]: less than 1000 nM; `COc1cc(C(=O)NC[C@@](O)(c2cccc(F)c2)c2cc(C(C)(C)O)c(F)c(-c3cccc(Cl)c3Cl)n2)cc2cn(C(F)F)nc12` [Example 99]: less than 1000 nM.
Compound `CC(C)(O)c1cc([C@@](O)(CNC(=O)c2cc(Cl)c3nn(C4CC4)cc3c2)c2cccc(F)c2)nc(-c2cccc(Cl)c2Cl)c1F` [Example 100] yielded an EC50 of more than 1000 nM.
`COc1cc(C(=O)NC[C@@](O)(c2cccc(F)c2)c2cc(C(C)(C)O)c(F)c(-c3cccc(Cl)c3Cl)n2)cc2cc(C3CC3)nn12` [Example 101] came in with a concentration giving a half-maximal response (EC50) of less than 1000 nM.
